According to US20260199359A1 (INCYTE CORPORATION, priority 2021, published 2026):
Several values for one entry are separate records, joined by “and”; a condition that tells them apart may be missing. Equal entries are not always repeated. Where two headings read alike, the source gives them in different places.

How the values were obtained:
[1] = Apparent pH of solvent systems before API addition and of saturated supernatant; assay type: physicochemical
[2] = Compatibility / immiscibility of bases and trolamine levels in solvent systems; assay type: physicochemical
[3] = SSAG01 with 3.50% w/w of the named base, before API addition
[4] = SSAG01 with 3.50% w/w of the named base, saturated with ruxolitinib phosphate
[5] = SSCR01 with 3.50% w/w of the named base, before API addition
[6] = SSCR01 with 3.50% w/w of the named base, saturated with ruxolitinib phosphate
[7] = SSNA01 with 3.50% w/w of the named base, before API addition
[8] = SSNA01 with 3.50% w/w of the named base, saturated with ruxolitinib phosphate

| Molecule | Vehicle pH [1, 5] | Supernatant pH [1, 6] | Vehicle pH [1, 7] | Supernatant pH [1, 8] | Compatibility of base with solvent system ([2]; SSAG01) | compatibility of the base with the solvent system ([2]; SSAG01) | other results |
| --- | --- | --- | --- | --- | --- | --- | --- |
| N#CC[C@H](C1CCCC1)n1cc(-c2ncnc3[nH]ccc23)cn1 [Ruxolitinib phosphate, ruxolitinib phosphate] |  |  |  |  |  |  | solubility at 24 h (physchem): 11.3 mg/mL |
| OCCNCCO [Diethanolamine] | 10.88 |  | 10.30 |  | Incompatible | incompatible |  |
| CC(C)NC(C)C [Diisopropylamine] |  |  |  |  |  |  | Compatibility of base with solvent system ([2]; SSCR01): Incompatible; compatibility of the base with the solvent system ([2]; SSCR01): incompatible; Supernatant pH [1]: 4.80 and 4.53; Vehicle pH [1]: 10.62 and 12.57 |
| Ethanolamine |  |  |  |  |  |  | Supernatant pH [1]: 6.65 and 6.55 and 5.33; Vehicle pH [1]: 10.27 and 12.25 and 11.52; apparent pH of SSCR01 following API addition with the named base [1]: 5.33; apparent pH of SSNA01 following API addition with the named base [1]: ca. 6.6 |
| CC(C)(N)CO [2-Amino-2-methyl-1-propanol] | 11.44 | 3.61 | 10.45 | 4.98 |  |  | Vehicle pH [1, 3]: 12.17; Supernatant pH [1, 4]: 4.34 |
| NC(CO)(CO)CO [Tris] | 10.08 | 3.45 |  |  | Incompatible | not compatible | Compatibility of base with solvent system ([2]; SSNA01): Incompatible; compatibility of the base with the solvent system ([2]; SSNA01): incompatible |

Second part, led by results:

| Vehicle pH [1, 5] | Supernatant pH [1, 6] | Vehicle pH [1, 7] | Supernatant pH [1, 8] | Compatibility of base with solvent system ([2]; SSAG01) | compatibility of the base with the solvent system ([2]; SSAG01) | Molecule | other results |
| --- | --- | --- | --- | --- | --- | --- | --- |
| 10.63 | 3.49 | 9.89 | 6.51 |  |  | CC(O)CNCC(C)O (centres unmarked) [Diisopropanolamine] | apparent pH of SSAG01 following API addition with the named base ([1]; SSAG01, after ruxolitinib phosphate addition): 4.29; Vehicle pH [1, 3]: 11.31; Supernatant pH [1, 4]: 4.29 |
| 10.38 | 3.29 | 10.27 | 4.99 | Incompatible | incompatible | CCC(N)(CO)CO [2-Amino-2-ethyl-1,3-propanediol] |  |
